Results published in patent US12559506B2, “Indazole based compounds and associated methods of use” (Arvinas Operations, Inc., priority 2021, dated 2026).
Read-outs that look alike come from different tables or passages of the source.

Assays:
[1] = target: T1, G2019S LRRK2 (Homo sapiens, UniProt Q5S007, G2019S); assay: LRRK2 degradation assay, HiBit-tagged G2019S LRRK2 expressed from plasmid in HEK293 cells (Nano-Glo Dual-Luciferase); format: cell-based; settings: 24 hours
T1 construct: expressed in transfected cells; host or cells: HEK293 (ATCC CRL-1573), transient transfection, mammalian expression vector with ubiquitin promoter
How it was run: (§1)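 Degradation read as Nano-Glo HiBiT signal over firefly luciferase (cell number/viability) after 24 h compound exposure of transiently transfected HEK293 expressing C-terminally HiBiT-tagged wildtype or G2019S LRRK2. Data as % DMSO; DC50/Dmax fitted per plate, triplicate plates repeated twice.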

[2] = target: T2, wildtype LRRK2 (Homo sapiens, UniProt Q5S007); assay: LRRK2 degradation assay, HiBit-tagged wildtype LRRK2 expressed from plasmid in HEK293 cells (Nano-Glo Dual-Luciferase); format: cell-based; settings: 24 hours; for Dmax: read-out: **WT Dmax (%); for DC50: read-out: *WT DC50
T2 construct: expressed in transfected cells; host or cells: HEK293 (ATCC CRL-1573), transient transfection, mammalian expression vector with ubiquitin promoter
How it was run: as §1

[3] = HiBit-tagged G2019S LRRK2 in HEK293 cells
[4] = HiBit-tagged wildtype LRRK2 in HEK293 cells
[5] = HiBit-tagged G2019S LRRK2, HEK293 cells
[6] = HiBit-tagged wildtype LRRK2, HEK293 cells

T2 sequence (Q5S007 whole entry): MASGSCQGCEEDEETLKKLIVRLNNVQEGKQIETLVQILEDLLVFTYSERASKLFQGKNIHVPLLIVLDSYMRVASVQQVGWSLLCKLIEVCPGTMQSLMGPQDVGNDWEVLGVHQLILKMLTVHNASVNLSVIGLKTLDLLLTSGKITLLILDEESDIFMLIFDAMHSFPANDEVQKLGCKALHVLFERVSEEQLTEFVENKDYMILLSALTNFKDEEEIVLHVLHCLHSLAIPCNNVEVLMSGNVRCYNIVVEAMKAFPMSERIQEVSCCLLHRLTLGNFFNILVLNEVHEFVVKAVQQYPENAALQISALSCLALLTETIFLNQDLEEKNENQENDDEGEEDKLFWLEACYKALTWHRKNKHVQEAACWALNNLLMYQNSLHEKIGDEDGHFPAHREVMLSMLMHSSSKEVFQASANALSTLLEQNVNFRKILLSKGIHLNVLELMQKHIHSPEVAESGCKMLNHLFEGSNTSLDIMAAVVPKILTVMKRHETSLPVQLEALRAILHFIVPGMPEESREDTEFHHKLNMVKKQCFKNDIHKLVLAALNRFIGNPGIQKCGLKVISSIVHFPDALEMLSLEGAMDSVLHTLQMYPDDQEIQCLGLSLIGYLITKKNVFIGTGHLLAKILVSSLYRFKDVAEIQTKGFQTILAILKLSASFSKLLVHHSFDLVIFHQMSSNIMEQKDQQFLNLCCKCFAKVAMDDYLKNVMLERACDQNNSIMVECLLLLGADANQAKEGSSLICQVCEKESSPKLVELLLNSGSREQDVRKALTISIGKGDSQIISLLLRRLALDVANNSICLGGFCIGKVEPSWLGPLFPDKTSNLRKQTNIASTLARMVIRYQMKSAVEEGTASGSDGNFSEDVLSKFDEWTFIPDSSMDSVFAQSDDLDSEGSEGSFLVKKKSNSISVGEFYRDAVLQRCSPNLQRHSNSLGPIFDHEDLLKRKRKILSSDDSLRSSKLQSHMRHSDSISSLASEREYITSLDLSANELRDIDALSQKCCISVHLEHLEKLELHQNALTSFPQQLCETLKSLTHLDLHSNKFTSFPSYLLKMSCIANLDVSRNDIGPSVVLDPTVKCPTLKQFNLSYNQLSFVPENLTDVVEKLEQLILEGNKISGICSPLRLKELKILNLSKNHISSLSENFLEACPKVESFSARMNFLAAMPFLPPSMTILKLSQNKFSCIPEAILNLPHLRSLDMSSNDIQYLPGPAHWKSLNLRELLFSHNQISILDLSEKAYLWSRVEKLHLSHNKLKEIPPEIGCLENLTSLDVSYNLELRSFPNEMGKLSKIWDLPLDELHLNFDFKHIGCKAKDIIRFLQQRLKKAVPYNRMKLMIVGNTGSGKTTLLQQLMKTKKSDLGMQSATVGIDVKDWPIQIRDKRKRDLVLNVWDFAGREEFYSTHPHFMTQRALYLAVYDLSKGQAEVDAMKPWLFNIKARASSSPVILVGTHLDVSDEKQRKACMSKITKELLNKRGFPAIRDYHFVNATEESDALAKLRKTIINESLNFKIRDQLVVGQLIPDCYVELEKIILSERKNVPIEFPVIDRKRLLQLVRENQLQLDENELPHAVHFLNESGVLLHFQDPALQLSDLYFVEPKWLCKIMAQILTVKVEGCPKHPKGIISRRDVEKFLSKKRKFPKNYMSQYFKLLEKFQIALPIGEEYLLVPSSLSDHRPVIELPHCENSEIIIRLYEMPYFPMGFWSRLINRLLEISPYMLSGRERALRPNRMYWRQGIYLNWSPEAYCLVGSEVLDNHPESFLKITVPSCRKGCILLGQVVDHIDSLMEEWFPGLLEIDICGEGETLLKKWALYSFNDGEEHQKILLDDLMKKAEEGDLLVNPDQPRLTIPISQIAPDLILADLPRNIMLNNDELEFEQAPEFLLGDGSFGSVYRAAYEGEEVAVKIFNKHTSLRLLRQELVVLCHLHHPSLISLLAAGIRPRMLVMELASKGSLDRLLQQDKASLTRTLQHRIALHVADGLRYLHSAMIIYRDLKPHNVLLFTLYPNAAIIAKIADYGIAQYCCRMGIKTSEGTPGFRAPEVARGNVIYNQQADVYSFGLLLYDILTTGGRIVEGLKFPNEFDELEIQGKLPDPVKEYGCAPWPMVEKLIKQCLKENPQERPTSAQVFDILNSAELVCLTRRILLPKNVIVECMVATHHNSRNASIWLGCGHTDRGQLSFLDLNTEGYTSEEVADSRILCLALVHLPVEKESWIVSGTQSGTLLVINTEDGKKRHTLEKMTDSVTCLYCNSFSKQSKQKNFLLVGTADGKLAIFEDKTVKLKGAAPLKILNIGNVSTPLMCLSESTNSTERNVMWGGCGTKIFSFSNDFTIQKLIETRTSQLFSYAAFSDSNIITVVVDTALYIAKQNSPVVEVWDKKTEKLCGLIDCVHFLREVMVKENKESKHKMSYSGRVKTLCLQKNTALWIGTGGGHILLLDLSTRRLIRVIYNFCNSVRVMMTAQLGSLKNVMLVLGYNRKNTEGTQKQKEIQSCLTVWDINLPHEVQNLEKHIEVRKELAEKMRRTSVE
T1 sequence (Q5S007 whole entry G2019S): as the sequence (Q5S007 whole entry) above, with G2019S counted along it

SMILES	DC50 [1, 3] [nM]	Dmax [1, 3] [%]	Dmax [2, 4] [%]	DC50 [2, 4] [nM]	DC50 [1, 5] [nM]	Dmax [1, 5] [%]	Dmax [2, 6] [%]	DC50 [2, 6] [nM]
CC1(Oc2ccc3[nH]nc(-c4cc(N5CCN(CC6(F)CCN(CC7CCN(c8ccc9c(c8)CN(C8CCC(=O)NC8=O)C9=O)CC7)CC6)CC5)ncn4)c3c2)CC1 (stereo not shown) [Compound 110, 3-[5-[4-[[4-fluoro-4-[[4-[6-[5-(1-methylcyclopropoxy)-1H-indazol-3-yl]pyrimidin-4-yl]piperazin-1-yl]methyl]-1-piperidyl]methyl]-1-piperidyl]-1-oxo-isoindolin-2-yl]piperidine-2,6-dione]	< 10	50 to 70	50 to 70	< 10	–	–	–	–
C[C@H]1CN(c2cc(-c3n[nH]c4ccc(OC5(C)CC5)cc34)ncn2)CCN1CCN1CCN(CC2CCN(c3ccc4c(c3)C(=O)N(C3CCC(=O)NC3=O)C4=O)CC2)CC1 (stereo partly drawn) [Compound 55, 2-(2,6-dioxopiperidin-3-yl)-5-{4-[(4-{2-[(2S)-2-methyl-4-{6-[5-(1-methylcyclopropoxy)-1H-indazol-3-yl]pyrimidin-4-yl}piperazin-1-yl]ethyl}piperazin-1-yl)methyl]piperidin-1-yl}-2,3-dihydro-1H-isoindole-1,3-dione]	< 10	≥ 70	≥ 70	< 10	–	–	–	–
CC1(Oc2ccc3[nH]nc(-c4cc(N5CCC(CN6CCN(CC7CCN(c8ccc9c(c8)C(=O)N(C8CCC(=O)NC8=O)C9=O)CC7)CC6)CC5)ccn4)c3c2)CC1 (stereo not shown) [Compound 98, 2-(2,6-dioxo-3-piperidyl)-5-[4-[[4-[[1-[2-[5-(1-methylcyclopropoxy)-1H-indazol-3-yl]-4-pyridyl]-4-piperidyl]methyl]piperazin-1-yl]methyl]-1-piperidyl]isoindoline-1,3-dione]	≥ 100	–	–	≥ 100	–	–	–	–
CC1(Oc2ccc3[nH]nc(-c4cc(N5CC[C@H](CN6CCN(CC7CCN(c8ccc9c(c8)C(=O)N(C8CCC(=O)NC8=O)C9=O)CC7)CC6)C5)ncn4)c3c2)CC1 (stereo partly drawn) [Compound 166, 2-(2,6-dioxo-3-piperidyl)-5-[4-[[4-[[(3R)-1-[6-[5-(1-methylcyclopropoxy)-1H-indazol-3-yl]pyrimidin-4-yl]pyrrolidin-3-yl]methyl]piperazin-1-yl]methyl]-1-piperidyl]isoindoline-1,3-dione]	–	–	–	–	< 10	< 50	< 50	< 10
CC1(Oc2ccc3[nH]nc(-c4cc(N5CCC(CC6CCN(C(=O)C7CCN(c8ccc9c(c8)C(=O)N(C8CCC(=O)NC8=O)C9=O)CC7)CC6)CC5)ncn4)c3c2)CC1 (stereo not shown) [Compound 92, 2-(2,6-dioxo-3-piperidyl)-5-[4-[4-[[1-[6-[5-(1-methylcyclopropoxy)-1H-indazol-3-yl]pyrimidin-4-yl]-4-piperidyl]methyl]piperidine-1-carbonyl]-1-piperidyl]isoindoline-1,3-dione]	10 to 50	50 to 70	50 to 70	< 10	–	–	–	–
CC1(Oc2ccc3n[nH]c(-c4cc(N5CCC(CN6CCN(CC7(F)CN(c8ccc9c(c8)C(=O)N(C8CCC(=O)NC8=O)C9=O)C7)CC6)CC5)ncn4)c3c2)CC1 (stereo not shown) [Compound 134, 2-(2,6-dioxo-3-piperidyl)-5-[3-fluoro-3-[[4-[[1-[6-[5-(1-methylcyclopropoxy)-2H-indazol-3-yl]pyrimidin-4-yl]-4-piperidyl]methyl]piperazin-1-yl]methyl]azetidin-1-yl]isoindoline-1,3-dione]	< 10	50 to 70	50 to 70	< 10	–	–	–	–
CC1(Oc2ccc3[nH]nc(-c4cc(N5CCC(CN6CC[C@H](OC7CCN(c8ccc9c(c8)C(=O)N(C8CCC(=O)NC8=O)C9=O)CC7)C6)CC5)ncn4)c3c2)CC1 (stereo partly drawn) [Compound 118, 2-(2,6-dioxo-3-piperidyl)-5-[4-[(3S)-1-[[1-[6-[5-(1-methylcyclopropoxy)-1H-indazol-3-yl]pyrimidin-4-yl]-4-piperidyl]methyl]pyrrolidin-3-yl]oxy-1-piperidyl]isoindoline-1,3-dione]	10 to 50	< 50	50 to 70	10 to 50	–	–	–	–
CC1(Oc2ccc3[nH]nc(-c4ccnc(N5CCN(CC6CCN(C(=O)C7CCN(c8ccc9c(c8)C(=O)N(C8CCC(=O)NC8=O)C9=O)CC7)CC6)CC5)c4)c3c2)CC1 (stereo not shown) [Compound 91, 2-(2,6-dioxopiperidin-3-yl)-5-(4-{4-[(4-{4-[5-(1-methylcyclopropoxy)-1H-indazol-3-yl]pyridin-2-yl}piperazin-1-yl)methyl]piperidine-1-carbonyl}piperidin-1-yl)-2,3-dihydro-1H-isoindole-1,3-dione]	< 10	50 to 70	50 to 70	< 10	–	–	–	–
C[C@H]1CN(c2cc(-c3n[nH]c4ccc(OC5(C)CC5)cc34)ncn2)CCN1CC1CCN(CCC2CCN(c3ccc4c(c3)C(=O)N(C3CCC(=O)NC3=O)C4=O)CC2)CC1 (stereo partly drawn) [Compound 159, 2-(2,6-dioxo-3-piperidyl)-5-[4-[2-[4-[[(2S)-2-methyl-4-[6-[5-(1-methylcyclopropoxy)-1H-indazol-3-yl]pyrimidin-4-yl]piperazin-1-yl]methyl]-1-piperidyl]ethyl]-1-piperidyl]isoindoline-1,3-dione]	–	–	–	–	< 10	50 to 70	< 50	< 10
CC1(Oc2ccc3n[nH]c(-c4cc(N5CCC(Cc6ccc(CC7CCN(c8ccc9c(c8)C(=O)N(C8CCC(=O)NC8=O)C9=O)CC7)cc6)CC5)ncn4)c3c2)CC1 (stereo not shown) [Compound 171, 2-(2,6-dioxo-3-piperidyl)-5-[4-[[4-[[1-[6-[5-(1-methylcyclopropoxy)-2H-indazol-3-yl]pyrimidin-4-yl]-4-piperidyl]methyl]phenyl]methyl]-1-piperidyl]isoindoline-1,3-dione]	–	–	–	–	≥ 100	< 50	–	≥ 100
CC1(Oc2ccc3[nH]nc(-c4ccnc(N5CC(CN6CCN(CC7CCN(c8ccc9c(c8)C(=O)N(C8CCC(=O)NC8=O)C9=O)CC7)CC6)C5)c4)c3c2)CC1 (stereo not shown) [Compound 128, 2-(2,6-dioxopiperidin-3-yl)-5-[4-({4-[(1-{4-[5-(1-methylcyclopropoxy)-1H-indazol-3-yl]pyridin-2-yl}azetidin-3-yl)methyl]piperazin-1-yl}methyl)piperidin-1-yl]-2,3-dihydro-1H-isoindole-1,3-dione]	< 10	50 to 70	50 to 70	< 10	–	–	–	–
CC1(Oc2ccc3[nH]nc(-c4cc(N5CCC(CN6CC[C@@H](OC7CCN(c8ccc9c(c8)C(=O)N(C8CCC(=O)NC8=O)C9=O)CC7)C6)CC5)ncn4)c3c2)CC1 (stereo partly drawn) [Compound 119, 2-(2,6-dioxopiperidin-3-yl)-5-(4-{[(3R)-1-[(1-{6-[5-(1-methylcyclopropoxy)-1H-indazol-3-yl]pyrimidin-4-yl}piperidin-4-yl)methyl]pyrrolidin-3-yl]oxy}piperidin-1-yl)-2,3-dihydro-1H-isoindole-1,3-dione]	< 10	< 50	< 50	< 10	–	–	–	–
CC1(Oc2ccc3[nH]nc(-c4cc(N5CCC(C(=O)N6CCC(CN7CCN(c8ccc9c(c8)C(=O)N(C8CCC(=O)NC8=O)C9=O)CC7)CC6)CC5)ncn4)c3c2)CC1 (stereo not shown) [Compound 86, 2-(2,6-dioxopiperidin-3-yl)-5-(4-{[1-(1-{6-[5-(1-methylcyclopropoxy)-1H-indazol-3-yl]pyrimidin-4-yl}piperidine-4-carbonyl)piperidin-4-yl]methyl}piperazin-1-yl)-2,3-dihydro-1H-isoindole-1,3-dione]	< 10	50 to 70	50 to 70	< 10	–	–	–	–
CC1(Oc2ccc3[nH]nc(-c4ccnc(N5CCC(O[C@H]6CC[C@H](OC7CCN(c8ccc9c(c8)C(=O)N(C8CCC(=O)NC8=O)C9=O)CC7)CC6)CC5)c4)c3c2)CC1 (stereo partly shown) [Compound 100, 2-(2,6-dioxopiperidin-3-yl)-5-(4-{[(1r,4r)-4-[(1-{4-[5-(1-methylcyclopropoxy)-1H-indazol-3-yl]pyridin-2-yl}piperidin-4-yl)oxy]cyclohexyl]oxy}piperidin-1-yl)-2,3-dihydro-1H-isoindole-1,3-dione]	10 to 50	50 to 70	< 50	10 to 50	–	–	–	–
C[C@H]1CN(c2cc(-c3[nH]nc4ccc(OC5(C)CC5)cc34)ncn2)CCN1CC1CCN(CC2CCN(c3ccc4c(c3)CN(C3CCC(=O)NC3=O)C4=O)CC2)CC1 (stereo partly drawn) [Compound 109, 3-[5-[4-[[4-[[(2S)-2-methyl-4-[6-[5-(1-methylcyclopropoxy)-2H-indazol-3-yl]pyrimidin-4-yl]piperazin-1-yl]methyl]-1-piperidyl]methyl]-1-piperidyl]-1-oxo-isoindolin-2-yl]piperidine-2,6-dione]	< 10	50 to 70	50 to 70	< 10	–	–	–	–
CC1(Oc2ccc3n[nH]c(-c4cc(N5CCC(CN6CCN(CC7CCN(c8cccc9c8CN(C8CCC(=O)NC8=O)C9=O)CC7)CC6)CC5)ncn4)c3c2)CC1 (stereo not shown) [Compound 147, 3-[4-[4-[[4-[[1-[6-[5-(1-methylcyclopropoxy)-2H-indazol-3-yl]pyrimidin-4-yl]-4-piperidyl]methyl]piperazin-1-yl]methyl]-1-piperidyl]-1-oxo-isoindolin-2-yl]piperidine-2,6-dione]	< 10	≥ 70	≥ 70	< 10	–	–	–	–
